Reference: US6914045B2, “Glycopeptide antibiotics” (Wyeth Holdings Corporation, priority 2001, dated 2005)

Key:
Escherichia coli = assay: in vitro antibacterial evaluation, MIC by broth dilution; format: cell-based; settings: 18 hours at 35° C.
Outline: (§1)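 Following National Committee for Clinical Laboratory Standards recommendations (M7-A2), susceptibility was measured by dilution in Muller-Hinton II […]. Bacteria were seeded at 5×10^5 CFU/mL against compound concentrations from 64 down to 0.06 μg/mL.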

Staphylococcus sp. = assay: as above; format: cell-based; settings: broth dilution, 18 hours at 35° C.
Outline: as §1

Streptococcus sp. = assay: as above; format: cell-based; settings: broth dilution, 18 hours at 35° C.
Outline: as §1

Enterococcus sp. = assay: as above; format: cell-based; settings: broth dilution, 18 hours at 35° C.
Outline: as §1

[1] = system: Enterococcus faecalis (GC 6189); assay: acute lethal infection in mice; format: in vivo; settings: female CD-1 mice, intraperitoneal challenge, intravenous 30 min. after infection, 7 day survival
Outline: (§2)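 Protocol: bacteria suspended in trypticase soy broth or hog gastric mucin injected ip into female CD-1 mice at a level killing untreated controls in 24-48 hr; compound given iv in saline or 5% dextrose 30 min post-challenge; five mice per dose; ED50 derived from pooled 7 day survival of three runs.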

[2] = system: Staphylococcus aureus-SMITH (GC 4543); assay: acute lethal infection in mice; format: in vivo; settings: acute lethal infection, female CD-1 mice, intraperitoneal challenge, intravenous 30 min. after infection, 7 day survival
Outline: as §2

Cc1ccc(CC2OCC3OC(OC4C(CO)OC(Oc5ccc(CC6NC(=O)C(C(C)c7ccccc7)NC(=O)CNC(=O)C(CO)NC(=O)C(C(O)C7CNC(=N)N7C7OC(CO)C(O)C(O)C7O)NC(=O)C(C(O)C7CNC(=N)N7)NC6=O)cc5)C(O)C4O)C(O)C(O)C3O2)cc1 (stereo not drawn) [Example 119, Cyclo[glycyl-β-methylphenylalanyl-O-[4-O-[4,6-O-(4-methylphenethylidene)hexopyranosyl]-hexopyranosyl]tyrosyl-3-(2-iminoimidazolidin-4-yl)seryl-3-(3-hexopyranosyl-2-iminoimidazolidin-4-yl)serylseryl]]
1 µg/mL: MIC Escherichia coli (GC 4560) (Escherichia coli; strain GC 4560) | MIC Coagulase Negative Staphylococcus (GC 4547) (Staphylococcus sp.) | MIC Coagulase Negative Staphylococcus (GC 4548) (Staphylococcus sp.) | MIC Coagulase Negative Staphylococcus (GC 4549) (Staphylococcus sp.) | MIC Coagulase Negative Staphylococcus (GC 4551) (Staphylococcus sp.) | MIC Staphylococcus aureus (ATCC 29213) (Staphylococcus sp.) | MIC Staphylococcus aureus (GC 1131) (Staphylococcus sp.) | MIC Staphylococcus aureus (GC 3051) (Staphylococcus sp.) | MIC Staphylococcus aureus (GC 4541) (Staphylococcus sp.) | MIC Staphylococcus aureus (GC 4542) (Staphylococcus sp.) | MIC Staphylococcus aureus (GC 4544) (Staphylococcus sp.) | MIC Staphylococcus aureus (GC 4545) (Staphylococcus sp.) | MIC Staphylococcus aureus-SMITH (GC 4543) (Staphylococcus sp.) | MIC Staphylococcus haemolyticus (GC 4546) (Staphylococcus sp.) | MIC Staphylococcus aureus (GC 1131) (Staphylococcus sp.; inoculum 5×10^5 CFU/mL, strain GC 1131) | MIC Staphylococcus aureus (ATCC 29213) (Staphylococcus sp.; strain ATCC 29213) | MIC Staphylococcus aureus (GC 3051) (Staphylococcus sp.; strain GC 3051) | MIC Staphylococcus aureus (GC 4541) (Staphylococcus sp.; strain GC 4541) | MIC Staphylococcus aureus (GC 4542) (Staphylococcus sp.; strain GC 4542) | MIC Staphylococcus aureus (GC 4544) (Staphylococcus sp.; strain GC 4544) | MIC Staphylococcus aureus (GC 4545) (Staphylococcus sp.; strain GC 4545) | MIC Staphylococcus haemolyticus (GC 4546) (Staphylococcus sp.; strain GC 4546) | MIC Coagulase Negative Staphylococcus (GC 4547) (Staphylococcus sp.; strain GC 4547) | MIC Coagulase Negative Staphylococcus (GC 4548) (Staphylococcus sp.; strain GC 4548) | MIC Coagulase Negative Staphylococcus (GC 4549) (Staphylococcus sp.; strain GC 4549) | MIC Coagulase Negative Staphylococcus (GC 4551) (Staphylococcus sp.; strain GC 4551) | MIC Staphylococcus aureus-SMITH (GC 4543) (Staphylococcus sp.; strain SMITH GC 4543) | MIC Streptococcus pneumoniae (GC 4565) (Streptococcus sp.; Streptococcus pneumoniae (GC 4565)) | MIC Streptococcus pneumoniae (GC 4565) (Streptococcus sp.; strain GC 4565) | MIC Enterococcus faecium (GC 4557) (Enterococcus sp.; Enterococcus faecium (GC 4557)) | MIC Enterococcus faecium (GC 4557) (Enterococcus sp.; strain GC 4557)
0.41 mg/kg: median effective dose (ED50), Enterococcus faecalis (GC 6189) [1]
0.19 mg/kg: median effective dose (ED50), Staphylococcus aureus-SMITH (GC 4543) [2]
4 µg/mL: MIC Enterococcus avium (GC 4558) (Enterococcus sp.; Enterococcus avium (GC 4558)) | MIC Enterococcus faecalis (GC 4553) (Enterococcus sp.; Enterococcus faecalis (GC 4553)) | MIC Enterococcus faecium (GC 2243) (Enterococcus sp.; Enterococcus faecium (GC 2243)) | MIC Enterococcus faecium (GC 2243) (Enterococcus sp.; strain GC 2243) | MIC Enterococcus faecalis (GC 4553) (Enterococcus sp.; strain GC 4553) | MIC Enterococcus avium (GC 4558) (Enterococcus sp.; strain GC 4558)
>64 µg/mL: MIC Enterococcus faecalis (GC 3059) (Enterococcus sp.; Enterococcus faecalis (GC 3059)) | MIC Enterococcus faecalis (GC 3059) (Enterococcus sp.; strain GC 3059)
<0.5 µg/mL: MIC Coagulase Negative Staphylococcus (GC 6257) (Staphylococcus sp.) | MIC Coagulase Negative Staphylococcus (GC 6257) (Staphylococcus sp.; strain GC 6257) | MIC Streptococcus agalactiae (GC 4564) (Streptococcus sp.; Streptococcus agalactiae (GC 4564)) | MIC Streptococcus pneumoniae (ATCC 6301) (Streptococcus sp.; Streptococcus pneumoniae (ATCC 6301)) | MIC Streptococcus pneumoniae (GC 1894) (Streptococcus sp.; Streptococcus pneumoniae (GC 1894)) | MIC Streptococcus pyogenes (GC 4563) (Streptococcus sp.; Streptococcus pyogenes (GC 4563)) | MIC Streptococcus pneumoniae (ATCC 6301) (Streptococcus sp.; strain ATCC 6301) | MIC Streptococcus pneumoniae (GC 1894) (Streptococcus sp.; strain GC 1894) | MIC Streptococcus pyogenes (GC 4563) (Streptococcus sp.; strain GC 4563) | MIC Streptococcus agalactiae (GC 4564) (Streptococcus sp.; strain GC 4564)
32 µg/mL: MIC Escherichia coli (ATCC 25922) (Escherichia coli; strain ATCC 25922) | MIC Escherichia coli (GC 4559) (Escherichia coli; strain GC 4559)
2 µg/mL: MIC Staphylococcus aureus (GC 3053) (Staphylococcus sp.) | MIC Staphylococcus aureus (GC 3053) (Staphylococcus sp.; strain GC 3053) | MIC Enterococcus faecalis (ATCC 29212) (Enterococcus sp.; Enterococcus faecalis (ATCC 29212)) | MIC Enterococcus faecalis (GC 2242) (Enterococcus sp.; Enterococcus faecalis (GC 2242)) | MIC Enterococcus faecalis (GC 2691) (Enterococcus sp.; Enterococcus faecalis (GC 2691)) | MIC Enterococcus faecalis (GC 4552) (Enterococcus sp.; Enterococcus faecalis (GC 4552)) | MIC Enterococcus faecalis (GC 4554) (Enterococcus sp.; Enterococcus faecalis (GC 4554)) | MIC Enterococcus faecalis (GC 6189) (Enterococcus sp.; Enterococcus faecalis (GC 6189)) | MIC Enterococcus faecium (GC 4556) (Enterococcus sp.; Enterococcus faecium (GC 4556)) | MIC Enterococcus faecalis (ATCC 29212) (Enterococcus sp.; strain ATCC 29212) | MIC Enterococcus faecalis (GC 2242) (Enterococcus sp.; strain GC 2242) | MIC Enterococcus faecalis (GC 2691) (Enterococcus sp.; strain GC 2691) | MIC Enterococcus faecalis (GC 4552) (Enterococcus sp.; strain GC 4552) | MIC Enterococcus faecalis (GC 4554) (Enterococcus sp.; strain GC 4554) | MIC Enterococcus faecium (GC 4556) (Enterococcus sp.; strain GC 4556) | MIC Enterococcus faecalis (GC 6189) (Enterococcus sp.; strain GC 6189)
